In patent US8974827B2, “Nanoparticles comprising a non-ionizable cellulosic polymer and an amphiphilic non-ionizable block copolymer” (Bend Research, Inc., priority 2007, dated 2015):
Converted amounts (≈) assume the structure as drawn.

Legend:
[1] = Solubility of drug in water; format: physicochemical
Description: The utility of the invention increases as the water solubility of the drug decreases. […] The Tg of non-crystalline Drug 1 was determined by DSC analysis to be 55° C., while the Tm of crystalline Drug 1 was 170° C.

[2] = for Observations: pH 6.5
Description: An appropriate PBS solution is an aqueous solution comprising 20 mM sodium phosphate (Na2HPO4), 47 mM potassium phosphate (KH2PO4), 87 mM NaCl, and 0.2 mM KCl, adjusted to pH 6.5 with NaOH. A test to determine whether the cellulosic polymer is insoluble may be performed as follows. The cellulosic polymer is initially present in bulk powder form with average particle sizes of greater than about 1 micron. The polymer alone is administered at a concentration of 0.2 mg/mL to the PBS solution and stirred for approximately 1 hour at room temperature. Next, a nylon 0.45 μm filter is weighed, and the solution is filtered. The filter is dried overnight at 40° C., and weighed the following morning.
First, 0.2 mg/mL of the polymer was added to a PBS solution consisting of 20 mM Na2HPO4, 47 mM KH2PO4, 87 mM NaCl, and 0.2 mM KCl, adjusted to pH 6.5 with NaOH. The polymer was stirred in the PBS solution for approximately 1 hour at room temperature. Next, the polymer solution was filtered through a nylon 0.45 μm filter that was weighed dry prior to filtration. The filter was dried overnight at 40° C., and weighed the following morning. The amount of soluble polymer was calculated from the amount of polymer added to form the polymer solution minus the amount of polymer remaining on the filter.

[3] = Solubility in model fasted duodenal (MFD) solution; format: physicochemical; settings: fassgf or other biorelevant, PBS containing 7.3 mM sodium taurocholic acid and 1.4 mM POPC
[4] = Log P of drug; format: physicochemical; settings: octanol/water
From the text: The first property of hydrophobic drugs is that they are extremely hydrophobic. Log P, defined as the base 10 logarithm of the ratio of the drug solubility in octanol to the drug solubility in water, is a widely accepted measure of hydrophobicity. By “extremely hydrophobic” is meant that the Log P value of the drug is at least 4.0, preferably at least 4.5, and most preferably at least 5.0. Log P may be measured experimentally or calculated using methods known in the art. When using a calculated value for Log P, the highest value calculated using any generally accepted method for calculating Log P is used. Calculated Log P values are often referred to by the calculation method, such as Clog P, Alog P, and Mlog P. The Log P may also be estimated using fragmentation methods, such as Crippen's fragmentation method (27 J. Chem. Inf. Comput. Sci. 21 (1987)); Viswanadhan's fragmentation method (29 J. Chem. Inf. Comput. Sci. 163 (1989)); or Broto's fragmentation method (19 Eur. J. Med. Chem.-Chim. Theor. 71 (1984).

[5] = Free drug analysis by centrifuge filtration (30,000-dalton cutoff) and HPLC; format: physicochemical; settings: 30,000-dalton cutoff centrifuge filter, HPLC
Description: The nanoparticle suspension was centrifuged for 3 minutes at 13,000 rpm using a 30,000-dalton molecular-weight cutoff centrifuge tube filter, and 50 μL of the supernatant was added to 250 μL acetonitrile. The sample was assayed by HPLC.

Compound	solubility [1] [µg/mL]	Observations [2]	Amount Soluble at pH 6.5 [2] [mg/mL]	also measured
CC[C@@H]1C[C@H](N(Cc2cc(C(F)(F)F)cc(C(F)(F)F)c2)C(C)=O)c2cc(C(F)(F)F)ccc2N1C(=O)OC(C)C [Drug 2, [2R,4S] 4-[acetyl-(3,5-bis-trifluoromethyl-benzyl)-amino]-2-ethyl-6-trifluoromethyl-3,4-dihydro-2H-quinoline-1-carboxylic acid isopropyl ester]	< 1	–	–	–
Polyethylene glycol 8000 [PEG 8000]	–	Stabilizer dissolved	–	Soluble at pH 6.5 [2]: 0.2 mg/mL
Cc1ccc(-c2cc(C(F)(F)F)nn2-c2ccc(S(N)(=O)=O)cc2)cc1 [Drug 3, celecoxib]	–	–	–	solubility [3]: ~40 µg/mL (≈ 105 µM)
Cc1onc(-c2ccccc2)c1-c1ccc(S(N)(=O)=O)cc1 [Drug 1, 4-(5-methyl-3-phenyl-4-isoxazolyl)benzenesulfonamide]	~10 (≈ 31.8 µM)	–	–	logP [4]: ~3; Free Drug [5]: 11 µg/mL

Continued, in another order:

solubility [1] [µg/mL]	Observations [2]	Amount Soluble at pH 6.5 [2] [mg/mL]	Compound	also measured
–	Fine particle suspension	<0.001	ethylcellulose	–
–	Fine particle suspension	0.02	poly(DL-lactide-co-glycolide 50:50) [PLGA]	–
